Test results: the supplement of paper PMC10307832

How the values were obtained:
Assay in all cases: relative viability (nuclei count vs DMSO), 5 days (fraction); higher = more cells survive
[1] = test system: NCI-H1437
Procedure, shortened: (§1)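 Lung cancer cell lines in 1536-well plates were dosed by pin tool the day after seeding, either with one drug alone or with a fixed anchor-drug dose plus five library-drug doses (not always all listed) in √10 steps. After 5 days, cells were fixed and their nuclei stained in one step (final 0.05% Triton X-100, 1% formaldehyde, 1 ug/ml Hoechst), then counted on 4× images. Relative viability is the nuclei count in treated wells divided by that in vehicle wells. Values are medians of duplicate plates.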

[2] = test system: NCI-H1666
Procedure, shortened: as §1

[3] = test system: NCI-H1975
Procedure, shortened: as §1

[4] = test system: NCI-H2085
Procedure, shortened: as §1

[5] = test system: NCI-H2087
Procedure, shortened: as §1

[6] = test system: NCI-H2170
Procedure, shortened: as §1

[7] = test system: NCI-H2342
Procedure, shortened: as §1

[8] = test system: NCI-H647
Procedure, shortened: as §1

[9] = test system: NCI-H650
Procedure, shortened: as §1

[10] = test system: PC-3 [JPC-3]
Procedure, shortened: as §1

[11] = test system: SW 1573
Procedure, shortened: as §1

Compound: O=c1cc(-c2cccc3c2Sc2ccccc2S3)oc(N2CCOCC2)c1 + O=C(c1cc(Cc2n[nH]c(=O)c3ccccc23)ccc1F)N1CCN(C(=O)C2CC2)CC1 [Olaparib] (partner 8 µM)
- relative viability ([1]; first compound 0.08 µM): 0.618
- relative viability ([1]; first compound 0.253 µM): 0.785
- relative viability ([1]; first compound 0.8 µM): 0.684
- relative viability ([1]; first compound 2.53 µM): 0.615
- relative viability ([1]; first compound 8 µM): 0.541
- relative viability ([2]; first compound 0.08 µM): 0.691
- relative viability ([2]; first compound 0.253 µM): 0.733
- relative viability ([2]; first compound 0.8 µM): 0.681
- relative viability ([2]; first compound 2.53 µM): 0.691
- relative viability ([2]; first compound 8 µM): 0.671
- relative viability ([3]; first compound 0.08 µM): 0.831
- relative viability ([3]; first compound 0.253 µM): 0.94
- relative viability ([3]; first compound 0.8 µM): 0.737
- relative viability ([3]; first compound 2.53 µM): 0.666
- relative viability ([3]; first compound 8 µM): 0.598
- relative viability ([4]; first compound 0.08 µM): 0.771
- relative viability ([4]; first compound 0.253 µM): 0.846
- relative viability ([4]; first compound 0.8 µM): 0.857
- relative viability ([4]; first compound 2.53 µM): 0.762
- relative viability ([4]; first compound 8 µM): 0.654
- relative viability ([5]; first compound 0.08 µM): 0.604
- relative viability ([5]; first compound 0.253 µM): 0.605
- relative viability ([5]; first compound 0.8 µM): 0.682
- relative viability ([5]; first compound 2.53 µM): 0.638
- relative viability ([5]; first compound 8 µM): 0.561
- relative viability ([6]; first compound 0.08 µM): 0.585
- relative viability ([6]; first compound 0.253 µM): 0.699
- relative viability ([6]; first compound 0.8 µM): 0.689
- relative viability ([6]; first compound 2.53 µM): 0.641
- relative viability ([6]; first compound 8 µM): 0.617
- relative viability ([7]; first compound 0.08 µM): 0.52
- relative viability ([7]; first compound 0.253 µM): 0.419
- relative viability ([7]; first compound 0.8 µM): 0.476
- relative viability ([7]; first compound 2.53 µM): 0.471
- relative viability ([7]; first compound 8 µM): 0.423
- relative viability ([8]; first compound 0.08 µM): 0.642
- relative viability ([8]; first compound 0.253 µM): 0.851
- relative viability ([8]; first compound 0.8 µM): 0.596
- relative viability ([8]; first compound 2.53 µM): 0.452
- relative viability ([8]; first compound 8 µM): 0.272
- relative viability ([9]; first compound 0.08 µM): 0.397
- relative viability ([9]; first compound 0.253 µM): 0.402
- relative viability ([9]; first compound 0.8 µM): 0.424
- relative viability ([9]; first compound 2.53 µM): 0.378
- relative viability ([9]; first compound 8 µM): 0.415
- relative viability ([10]; first compound 0.08 µM): 1.13
- relative viability ([10]; first compound 0.253 µM): 1.01
- relative viability ([10]; first compound 0.8 µM): 0.95
- relative viability ([10]; first compound 2.53 µM): 1.09
- relative viability ([10]; first compound 8 µM): 1.19
- relative viability ([11]; first compound 0.08 µM): 0.513
- relative viability ([11]; first compound 0.253 µM): 0.574
- relative viability ([11]; first compound 0.8 µM): 0.613
- relative viability ([11]; first compound 2.53 µM): 0.487
- relative viability ([11]; first compound 8 µM): 0.44
